Experimental data reported in paper PMC8904520, “Characterization of a small-molecule inhibitor targeting NEMO/IKKβ to suppress colorectal cancer growth” (Signal Transduction and Targeted Therapy, 2022).

Experiments:
[1] = target: T1, GST-NEMO (1–196) (Homo sapiens, UniProt Q9Y6K9); test: SPR affinity assay on captured GST-NEMO; format: binding
T1 construct: assays using MBP-IKKβ (701–745) and GST-NEMO (1–196) peptides; made in house; host or cells: E. coli BL21(DE3)
Method: According to the instructions from GE, an anti-GST antibody was immobilized onto the CM5 chip surface. The sensor surface was activated with NHS and EDC, after which 15 μg/mL of anti-GST antibody was injected for 420 s and the surface was blocked with 1 M ethanolamine, pH 8.5. […] For each analyte, 50 μg/mL of GST-G was captured for 60 s and 10 mM glycine-HCl (pH 2.1) was used to regenerate the surface. MBP-B was analyzed with 120 s injection and 120 s dissociation. A series of SHK concentrations was analyzed with 90 s injection and 90 s dissociation.

[2] = target: T2, MBP-IKKβ (701–745) (Homo sapiens, UniProt O14920); test: MST binding assay to IKKβ
T2 construct: made in house; host or cells: E. coli BL21(DE3)
T2 sequence (O14920 701-745): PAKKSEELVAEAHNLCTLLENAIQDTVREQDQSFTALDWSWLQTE

[3] = target: T1, GST-NEMO (1–196); test: MST binding assay to NEMO
[4] = test system: CCD841 CoN cells; test: CCK-8 cell viability assay, normal colonic epithelial cells; format: cell-based, human; conditions: 0.5–5 μM, 48 h
Method: Cell viability was determined using the CCK-8 assay. Briefly, 5×10³ cells were seeded into 96-well culture plates, allowed to adhere for overnight, and then changed to fresh medium containing various concentrations of SHK (0, 0.5, 1, 2 and 5 µM) dissolved in DMSO (final concentration, 0.1%). After incubation for 48 h, the CCK-8 reagent was added, and the absorbance was measured at 450 nm using an EnSpire® Multimode Plate Reader (Perkin Elmer, USA). The cell viability in the vehicle control groups was defined as 100%. Each assay was carried out in triplicate.

[5] = test system: NO release in LoVo and RKO cells; test: Nitric oxide production assay (Griess reagent); format: cell-based, human
Method: After overnight culture in a 96-well plate (1 × 10^4 cells in 100 μL medium per well), the cells were pre-treated with SHK for 1 hour and lipopolysaccharide for an additional 24 hours. The culture supernatant from each well was collected at the end of the experiment and used to measure NO production. The NO production was determined using a commercial NO assay kit on the basis of the Griess reaction (S0021, Beyotime Institute of Biotechnology, Shanghai, China) according to the manufacturer’s instructions.

[6] = test system: COX-2, iNOS, IL-6, TNF-α in LoVo and RKO cells; test: Expression of inflammatory markers by qPCR and western blotting; format: cell-based, human
Method: Protein lysates were separated by electrophoresis in a 10% acrylamide sodium dodecyl sulfate-polyacrylamide minigel (SDS-PAGE), electrophoretically transferred to a PVDF membrane, and immunoblotted with specific antibodies. The protein bands were detected by enhanced chemiluminescence. The protein concentrations were determined using a BCA protein assay kit (Beyotime Biotechnology, China). The experiments were carried out at least three times.

[7] = test system: NF-κB luciferase activity in LoVo cells; test: NF-κB dual-luciferase reporter assay; format: cell-based, human; conditions: 0.5 and 1 µM, 48 h
Method: LoVo cells in a 6-well plate were transfected with the pNFκB-luc plasmid (Beyotime), which contains the luciferase coding region downstream of an NFκB-responsive promoter, using Lipofectamine 2000 Reagent (Invitrogen, Grand Island, NY, USA). After transfection, the cells were treated with SHK (0.5 and 1µM) for 48 h. The dual-luciferase reporter assay system (Promega, Madison, WI) was used to measure the changes of luciferase activity in the cell lysates. The firefly luciferase activities were normalized to the corresponding Renilla luciferase activities. All values are shown as means ± SD of triplicate experiments.

[8] = test system: LoVo cells; test: Real-time cell growth (xCELLigence) in IKKβ or NEMO depleted or mutant LoVo cells; format: cell-based, human; conditions: SHK 1 μM
[9] = test system: LoVo/IKKβmut (D738A/W739A/W741A) xenograft; test: LoVo/IKKβmut xenograft mouse model; format: in vivo, athymic nude mice; design: dose or concentration left out as unconfirmed
Method: Female athymic nude mice aged 5 weeks were purchased from Beijing Vital River Laboratory Animal Technology Co., Ltd., and kept in the SPF Laboratory Animal Center of Dalian Medical University (Dalian, China). All animals were given free access to sterilized food and water and were habituated for 7 days before the experiments. All procedures were carried out in strict accordance with the recommendations established by the Animal Care and Ethics Committee of Dalian Medical University as well as the guidelines promulgated in the U.S. National Institutes of Health Guide for the Care and Use of Laboratory Animals. LoVo cells (LoVo/wt and LoVo/ mut, 5×10^6 in 100 μL PBS) were injected subcutaneously near the axillary fossa of each nude mouse. Two weeks later, when the formed tumor reached 3-4mm, the animals were divided randomly into three groups with 5 mice in each group. […] The tumors were measured with a caliper once every two days, and the tumor volume was calculated using the formula V = 1/2 (width^2 × length). The body weight of the animals was also recorded. After treatment with SHK for 15 days, all experimental mice were sacrificed and the tumors from each mouse were excised and their weight was measured. […] The stained samples were examined under a Leica DM 4000B fluorescence microscope equipped with a digital camera. […]

T1 sequence (Q9Y6K9 1-196): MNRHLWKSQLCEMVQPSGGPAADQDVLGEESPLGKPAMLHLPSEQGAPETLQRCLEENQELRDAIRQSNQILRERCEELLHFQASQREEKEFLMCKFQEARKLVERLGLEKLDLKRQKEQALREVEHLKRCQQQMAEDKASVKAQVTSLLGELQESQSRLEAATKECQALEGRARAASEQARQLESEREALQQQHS

CC(C)=CC[C@@H](O)C1=CC(=O)c2c(O)ccc(O)c2C1=O [SHK, Shikonin]
Kd [1]: 8.29 ± 2.38 µM
Kd [2]: 15.2 ± 4 µM
Kd [3]: 14.2 ± 1.7 µM
growth inhibitory effect in normal colonic epithelial cells [4]: absent
release of NO [5]: dramatically decreased
expression of inflammatory markers COX-2, iNOS, IL-6, TNF-α [6]: suppressed the expression of inflammatory markers
NF-κB luciferase activity [7]: significant inhibition
inhibitory effect on growth of single point mutation cells compared with wild-type ([8]; LoVo cells rescued with L737A, M94A, Q98A or R101A): significantly weakened
inhibitory effect on growth of IKKβ or NEMO depletion cells ([8]; LoVo cells with shRNA): significantly weakened
inhibitory effect on tumor growth in LoVo/IKKβ mutant group compared with LoVo/wt [9]: significantly weakened
